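How tested: cells in 96-well plates exposed to compound for 48 hours at five concentrations. GI50 is the concentration that inhibits growth by half. Definition used: TGI = concentration required for complete inhibition of growth.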
Experiments:
Test in all cases: inhibition of tumour cell growth, NCI panel, 48 h
[1] = test system: SW-620 colon
[2] = test system: HT29 colon
[3] = test system: KM12 colon
[4] = test system: UACC-257 melanoma
[5] = test system: SNB-19 CNS
[6] = test system: SK-MEL-2 melanoma
[7] = test system: NCI-H522 lung
[8] = test system: SR leukemia
[9] = test system: MDA-MB-435
[10] = test system: UACC-62 melanoma
[11] = test system: HOP-62 NSCLC
[12] = test system: EKVX NSCLC
[13] = test system: CAKI-1 renal
[14] = test system: UO-31 renal
[15] = test system: NCI-H23 lung
[16] = test system: SK-MEL-28 melanoma
[17] = test system: SF-539 CNS
[18] = test system: BT-549 breast
[19] = test system: OVCAR-8 ovarian
[20] = test system: NCI/ADR-RES ovarian
[21] = test system: SK-OV-3 ovarian
[22] = test system: OVCAR-3 ovarian
[23] = test system: MCF7 breast
[24] = test system: K-562 leukemia
[25] = test system: SK-MEL-5 melanoma
[26] = test system: HL-60(TB) leukemia
[27] = test system: SF-268 CNS
[28] = test system: SF-295 CNS
[29] = test system: SN12C renal
[30] = test system: OVCAR-4 ovarian
[31] = test system: LOX IMVI melanoma
[32] = test system: T-47D breast
[33] = test system: HS 578T breast
[34] = test system: COLO 205 colon
[35] = test system: PC-3 prostate
[36] = test system: HCT-15 colon
[37] = test system: TK-10 renal
[38] = test system: 786-0 renal
[39] = test system: SNB-75 CNS
[40] = test system: OVCAR-5 ovarian
[41] = test system: MALME-3M melanoma
[42] = test system: RXF 393 renal
[43] = test system: MDA-MB-231 breast
[44] = test system: HOP-92 NSCLC
[45] = test system: DU-145 prostate
[46] = test system: ACHN renal
[47] = test system: MOLT-4 leukemia
[48] = test system: HCT-116 colon
[49] = test system: IGROV1 ovarian
[50] = test system: U251 CNS
[51] = test system: M14 melanoma
[52] = test system: NCI-H460 lung
[53] = test system: A549 NSCLC
[54] = test system: A498 renal
[55] = test system: CCRF-CEM leukemia
[56] = test system: NCI-H226 lung
[57] = test system: RPMI-8226 leukemia

**Q.** Which results are given for `O=C(CSc1nccc(=O)[nH]1)c1ccccc1`?
**A.** TGI [1]: > 100 µM; TGI [2]: > 100 µM; TGI [3]: > 100 µM; TGI [4]: > 100 µM; TGI [5]: > 100 µM; TGI [6]: > 100 µM; TGI [7]: > 100 µM; TGI [8]: > 100 µM; TGI [9]: > 100 µM; TGI [10]: > 100 µM; TGI [11]: > 100 µM; TGI [12]: > 100 µM; TGI [13]: > 100 µM; TGI [14]: > 100 µM; TGI [15]: > 100 µM; TGI [16]: > 100 µM; TGI [17]: > 100 µM; TGI [18]: > 100 µM; TGI [19]: > 100 µM; TGI [20]: > 100 µM; TGI [21]: > 100 µM; TGI [22]: > 100 µM; TGI [23]: > 100 µM; TGI [24]: > 100 µM; TGI [25]: > 100 µM; TGI [26]: > 100 µM; TGI [27]: > 100 µM; TGI [28]: > 100 µM; TGI [29]: > 100 µM; TGI [30]: > 100 µM; TGI [31]: > 100 µM; TGI [32]: > 100 µM; TGI [33]: > 100 µM; TGI [34]: > 100 µM; TGI [35]: > 100 µM; TGI [36]: > 100 µM; TGI [37]: > 100 µM; TGI [38]: > 100 µM; TGI [39]: > 100 µM; TGI [40]: > 100 µM; TGI [41]: > 100 µM; TGI [42]: > 100 µM; TGI [43]: > 100 µM; TGI [44]: > 100 µM; TGI [45]: > 100 µM; TGI [46]: > 100 µM; TGI [47]: > 100 µM; TGI [48]: > 100 µM; TGI [49]: > 100 µM; TGI [50]: > 100 µM; TGI [51]: > 100 µM; TGI [52]: > 100 µM; TGI [53]: > 100 µM

**Q.** Which GI50 [1] does the source give for `COc1ccc2c(c1)OCC1c3cc(O)ccc3OC21` (stereo not given) here?
**A.** > 100 µM

**Q.** And the TGI [1]?
**A.** > 100 µM

**Q.** And the GI50 [2]?
**A.** 47.5 µM

**Q.** And the TGI [2]?
**A.** > 100 µM

**Q.** And the GI50 [3]?
**A.** 38.7 µM

**Q.** And the TGI [3]?
**A.** > 100 µM

**Q.** And the GI50 [54]?
**A.** 40.2 µM

**Q.** And the TGI [54]?
**A.** > 100 µM

**Q.** And the GI50 [4]?
**A.** 78.3 µM

**Q.** And the TGI [4]?
**A.** > 100 µM

**Q.** And the GI50 [5]?
**A.** 52.1 µM

**Q.** And the TGI [5]?
**A.** > 100 µM

**Q.** And the GI50 [6]?
**A.** > 100 µM

**Q.** What about the TGI [6] of the same molecule?
**A.** > 100 µM

**Q.** And the GI50 [8]?
**A.** 46.3 µM

**Q.** What about the TGI [8] of the same molecule?
**A.** > 100 µM

**Q.** What about the GI50 [9] of the same molecule?
**A.** 44.8 µM

**Q.** And the TGI [9]?
**A.** > 100 µM

**Q.** And the GI50 [10]?
**A.** 35.9 µM

**Q.** What about the TGI [10] of the same molecule?
**A.** > 100 µM

**Q.** And the GI50 [11]?
**A.** > 100 µM

**Q.** What about the TGI [11] of the same molecule?
**A.** > 100 µM

**Q.** And the GI50 [12]?
**A.** 27.8 µM

**Q.** What about the TGI [12] of the same molecule?
**A.** > 100 µM

**Q.** And the GI50 [13]?
**A.** 32.5 µM

**Q.** What about the TGI [13] of the same molecule?
**A.** > 100 µM

**Q.** And the GI50 [55]?
**A.** 25.1 µM

**Q.** What about the TGI [55] of the same molecule?
**A.** > 100 µM

**Q.** What about the GI50 [14] of the same molecule?
**A.** 24.3 µM

**Q.** And the TGI [14]?
**A.** > 100 µM

**Q.** And the GI50 [56]?
**A.** 18.6 µM

**Q.** And the TGI [56]?
**A.** > 100 µM

**Q.** And the GI50 [15]?
**A.** 30.1 µM

**Q.** What about the TGI [15] of the same molecule?
**A.** > 100 µM

**Q.** What about the GI50 [16] of the same molecule?
**A.** > 100 µM

**Q.** And the TGI [16]?
**A.** > 100 µM

**Q.** What about the GI50 [17] of the same molecule?
**A.** 54.5 µM

**Q.** And the TGI [17]?
**A.** > 100 µM

**Q.** What about the GI50 [18] of the same molecule?
**A.** 39 µM

**Q.** What about the TGI [18] of the same molecule?
**A.** > 100 µM

**Q.** And the GI50 [19]?
**A.** > 100 µM

**Q.** What about the TGI [19] of the same molecule?
**A.** > 100 µM

**Q.** What about the GI50 [20] of the same molecule?
**A.** 33.2 µM

**Q.** What about the TGI [20] of the same molecule?
**A.** > 100 µM

**Q.** What about the GI50 [21] of the same molecule?
**A.** 63.2 µM

**Q.** And the TGI [21]?
**A.** > 100 µM

**Q.** And the GI50 [22]?
**A.** 27 µM

**Q.** What about the TGI [22] of the same molecule?
**A.** > 100 µM

**Q.** And the GI50 [23]?
**A.** 12.8 µM

**Q.** What about the TGI [23] of the same molecule?
**A.** 86.4 µM

**Q.** What about the GI50 [24] of the same molecule?
**A.** 63.5 µM

**Q.** What about the TGI [24] of the same molecule?
**A.** > 100 µM

**Q.** What about the GI50 [25] of the same molecule?
**A.** 33 µM

**Q.** What about the TGI [25] of the same molecule?
**A.** > 100 µM

**Q.** And the GI50 [26]?
**A.** 3.16 µM

**Q.** What about the TGI [26] of the same molecule?
**A.** 27.3 µM

**Q.** And the GI50 [27]?
**A.** 11 µM

**Q.** And the TGI [27]?
**A.** 74 µM

**Q.** What about the GI50 [28] of the same molecule?
**A.** 9.91 µM

**Q.** What about the TGI [28] of the same molecule?
**A.** 90.9 µM

**Q.** And the GI50 [29]?
**A.** 73.3 µM

**Q.** What about the TGI [29] of the same molecule?
**A.** > 100 µM

**Q.** And the GI50 [30]?
**A.** 28.1 µM

**Q.** What about the TGI [30] of the same molecule?
**A.** > 100 µM

**Q.** And the GI50 [31]?
**A.** 42.1 µM

**Q.** What about the TGI [31] of the same molecule?
**A.** > 100 µM

**Q.** And the GI50 [32]?
**A.** 16.2 µM

**Q.** And the TGI [32]?
**A.** 65.4 µM

**Q.** And the GI50 [57]?
**A.** 32.8 µM

**Q.** And the TGI [57]?
**A.** > 100 µM

**Q.** And the GI50 [33]?
**A.** 41.2 µM

**Q.** And the TGI [33]?
**A.** > 100 µM

**Q.** What about the GI50 [34] of the same molecule?
**A.** 32.7 µM

**Q.** And the TGI [34]?
**A.** > 100 µM

**Q.** And the GI50 [35]?
**A.** 34.4 µM

**Q.** And the TGI [35]?
**A.** > 100 µM

**Q.** And the GI50 [36]?
**A.** 40.6 µM

**Q.** What about the TGI [36] of the same molecule?
**A.** > 100 µM

**Q.** And the GI50 [37]?
**A.** 38.9 µM

**Q.** And the TGI [37]?
**A.** > 100 µM

**Q.** And the GI50 [38]?
**A.** 78.9 µM

**Q.** What about the TGI [38] of the same molecule?
**A.** > 100 µM

**Q.** And the GI50 [39]?
**A.** 34 µM

**Q.** What about the TGI [39] of the same molecule?
**A.** > 100 µM

**Q.** And the GI50 [40]?
**A.** 39.5 µM

**Q.** And the TGI [40]?
**A.** > 100 µM

**Q.** And the GI50 [41]?
**A.** 60.2 µM

**Q.** And the TGI [41]?
**A.** > 100 µM

**Q.** What about the GI50 [42] of the same molecule?
**A.** 72.6 µM

**Q.** What about the TGI [42] of the same molecule?
**A.** > 100 µM

**Q.** What about the GI50 [43] of the same molecule?
**A.** 13.7 µM

**Q.** And the TGI [43]?
**A.** 92.2 µM

**Q.** And the GI50 [44]?
**A.** 39.6 µM

**Q.** What about the TGI [44] of the same molecule?
**A.** > 100 µM

**Q.** And the GI50 [45]?
**A.** 75.8 µM

**Q.** And the TGI [45]?
**A.** > 100 µM

**Q.** What about the GI50 [46] of the same molecule?
**A.** 35.8 µM

**Q.** And the TGI [46]?
**A.** > 100 µM

**Q.** What about the GI50 [47] of the same molecule?
**A.** 35.4 µM

**Q.** And the TGI [47]?
**A.** > 100 µM

**Q.** And the GI50 [48]?
**A.** 51.4 µM

**Q.** And the TGI [48]?
**A.** > 100 µM

**Q.** And the GI50 [49]?
**A.** 36 µM

**Q.** And the TGI [49]?
**A.** 99.4 µM

**Q.** What about the GI50 [50] of the same molecule?
**A.** 54.9 µM

**Q.** What about the TGI [50] of the same molecule?
**A.** > 100 µM

**Q.** What about the GI50 [51] of the same molecule?
**A.** 72.5 µM

**Q.** And the TGI [51]?
**A.** > 100 µM

**Q.** What about the GI50 [52] of the same molecule?
**A.** 25 µM

**Q.** And the TGI [52]?
**A.** > 100 µM

**Q.** And the GI50 [53]?
**A.** 60.9 µM

**Q.** What about the TGI [53] of the same molecule?
**A.** > 100 µM

Reference: PubChem BioAssay (NCI)
